Where two headings read alike, the source gives them in different places.
Legend:
MCF-7 cell line = test: MTT anticancer activity assay against MCF-7; details: for IC50: Homo sapiens, MCF7, 48 h, read-out: IC50 on MCF-7 cell line
EGFR [1] = biological target: T1, EGFR (Homo sapiens, UniProt P00533); test: In vitro EGFR kinase inhibitory assay (Kinase-Glo luminescence kit)
Method: All samples and controls were tested in triplicate. 5× Kinase assay buffer, ATP and 50× PTK substrate were thawed. The master mixture was constructed (25 µL per well), consequently 25 µL was added to every well. About 5 µL inhibitor solution was added to each well labeled as “Test Inhibitor” while for the “Positive control” and “Blank”, 5 µL of the buffer solution without inhibitor (Inhibitor buffer) was added.
About 3 mL of 1× kinase assay buffer was developed through mixing 600 µL of 5× kinase assay buffer with 2400 µL water. About 20 µL of 1× kinase assay buffer was added to the wells designated as “Blank”. EGFR enzyme was thawed on ice. Consequent to the first thaw, the tube containing enzyme was shortly spun so as to recover full content of the tube. The amount of EGFR required for the assay was calculated then the enzyme was diluted to 1 ng/µL with 1× kinase assay buffer. Reaction was initiated via addition of 20 µL of diluted EGFR enzyme to the wells designated “Positive Control” and “Test Inhibitor Control” then incubation at 30 °C for 40 min. Kinase-Glo Max reagent was thawed. After the 40 min reaction, 50 µL of Kinase-Glo Max reagent was added to each well. Plates were covered with aluminum foil and incubated at room temperature for 15 min. Finally, luminescence was measured using the microplate Robonik P2000 ELISA Reader (India).

[2] = biological target: T2, recombinant human VEGFR-2/KDR (Homo sapiens, UniProt P35968); test: In vitro VEGFR-2 kinase inhibitory assay (ELISA kit); format: biochemical; details: mean of three experiments ± SD
T2 construct: purchased #7788
Method: About 10 µL of 10 mM ATP was added to 1.25 mL 6 µM substrate peptide followed by dilution of the mixture with distilled water to 2.50 mL to make 2× ATP/substrate cocktail ([ATP] = 40 µM, [substrate] = 3 µm). The enzyme was immediately transferred from –80 °C to ice and was allowed to thaw on ice. Microcentrifuge was performed briefly at 4 °C and returned immediately to ice. […] About 0.6 mL of DTT/Kinase buffer was transferred to each enzyme tube to make 4× reaction mixture. […] About 25 µL of 2× ATP/substrate cocktail was added to 25 µL/well pre-incubated reaction mixture/compound. Reaction plate was incubated at room temperature for 30 min. Then, 50 µL/well stop buffer (50 mM EDTA, pH 8) was added to stop the reaction. […] About 100 µL/well primary antibody was added and incubated at room temperature for 60 min followed by washing three times with 200 µL/well PBS/T.
Appropriate dilution of HRP labeled secondary antibody in PBS/T was prepared with 1% BSA (1:500 dilution for anti-mouse IgG or 1:1000 for anti-rabbit IgG). About 100 µL/well secondary antibody solution was added and incubated at room temperature for 30 min then washed five times with 200 µL/well PBS/T followed by addition of 100 µL/well 3,3′,5,5′-tetramethylbenzidine (TMB) substrate and incubation at room temperature for 15 min and finally addition of 100 µL/well of stop solution and mix well. The absorbance was read at 450 nm with a microtiter plate reader. The values of % activity versus a series of compound concentrations (0.01 µM–0.1 µM–1 µM–10 µM) was then plotted using non-linear regression analysis of sigmoidal dose-response curve.

[3] = tested on: MCF-10A (the human mammary epithelial cell line); test: MTT cytotoxicity on normal mammary epithelial cell line; details: for IC50: Homo sapiens, MCF-10A, read-out: IC50 on normal mammary epithelial cell line (MCF-10A); for Selectivity index: MCF-10A versus MCF-7 tumor cell line
MCF-7 cells [4] = test: Cell cycle analysis, propidium iodide flow cytometry; format: cell-based, human; details: 24 h
Method: Cell cycle were carried out using propidium iodide flow cytometry kit (Abcam, ab139418) according to the manufacturer’s instructions. The MCF-7 cells were treated with 0.66 µM of compound 5f for 24 h. Then, the cells were washed twice with ice-cold PBS, centrifuged and fixed using ice-cold 66% (v/v) ethanol, washed with PBS, re-suspended with 0.1 mg/mL RNase and stained with 200 µL propidium iodide (PI). Finally, cells were analyzed by flow cytometry. The cell cycle distributions were calculated using Cell-Quest software (Becton Dickinson). An interference with the normal cell cycle distribution resulted upon exposure of MCF-7 cells to this compound as indicated.

MCF-7 cells [5] = test: Annexin V-FITC/PI apoptosis detection; format: cell-based, human; details: MCF-7, 0.66 µM, 24 h
Method: Apoptosis was evaluated utilizing Annexin V-FITC/PI apoptosis detection kit (Biovision, Mountain View, CA #K101-25) according to the manufacturer’s instructions after staining the cells with Annexin V fluorescein isothiocyanate (FITC) and counterstaining with propidium iodide (PI).
The cells then were centrifuged and in case of adherent cells, cells were gently trypsinized and washed once with serum-containing media followed by resuspension in 500 µL of binding buffer. About 5 µL of Annexin V-FITC and 5 µL of (PI […]) were added and incubated at room temperature for 5 min in the dark. Analyses were carried out using flow cytometer (Ex = 488 nm; Em = 530 nm) using FITC signal detector (usually FL1) and PI staining by the phycoerythrin emission signal detector (usually FL2).

EGFR [6] = biological target: T1, EGFR; details: Figure 1 compounds I–VII; cited from earlier work
VEGFR-2 = details: Figure 1 compounds I–VII; cited from earlier work

T2 sequence (P35968 20-1356): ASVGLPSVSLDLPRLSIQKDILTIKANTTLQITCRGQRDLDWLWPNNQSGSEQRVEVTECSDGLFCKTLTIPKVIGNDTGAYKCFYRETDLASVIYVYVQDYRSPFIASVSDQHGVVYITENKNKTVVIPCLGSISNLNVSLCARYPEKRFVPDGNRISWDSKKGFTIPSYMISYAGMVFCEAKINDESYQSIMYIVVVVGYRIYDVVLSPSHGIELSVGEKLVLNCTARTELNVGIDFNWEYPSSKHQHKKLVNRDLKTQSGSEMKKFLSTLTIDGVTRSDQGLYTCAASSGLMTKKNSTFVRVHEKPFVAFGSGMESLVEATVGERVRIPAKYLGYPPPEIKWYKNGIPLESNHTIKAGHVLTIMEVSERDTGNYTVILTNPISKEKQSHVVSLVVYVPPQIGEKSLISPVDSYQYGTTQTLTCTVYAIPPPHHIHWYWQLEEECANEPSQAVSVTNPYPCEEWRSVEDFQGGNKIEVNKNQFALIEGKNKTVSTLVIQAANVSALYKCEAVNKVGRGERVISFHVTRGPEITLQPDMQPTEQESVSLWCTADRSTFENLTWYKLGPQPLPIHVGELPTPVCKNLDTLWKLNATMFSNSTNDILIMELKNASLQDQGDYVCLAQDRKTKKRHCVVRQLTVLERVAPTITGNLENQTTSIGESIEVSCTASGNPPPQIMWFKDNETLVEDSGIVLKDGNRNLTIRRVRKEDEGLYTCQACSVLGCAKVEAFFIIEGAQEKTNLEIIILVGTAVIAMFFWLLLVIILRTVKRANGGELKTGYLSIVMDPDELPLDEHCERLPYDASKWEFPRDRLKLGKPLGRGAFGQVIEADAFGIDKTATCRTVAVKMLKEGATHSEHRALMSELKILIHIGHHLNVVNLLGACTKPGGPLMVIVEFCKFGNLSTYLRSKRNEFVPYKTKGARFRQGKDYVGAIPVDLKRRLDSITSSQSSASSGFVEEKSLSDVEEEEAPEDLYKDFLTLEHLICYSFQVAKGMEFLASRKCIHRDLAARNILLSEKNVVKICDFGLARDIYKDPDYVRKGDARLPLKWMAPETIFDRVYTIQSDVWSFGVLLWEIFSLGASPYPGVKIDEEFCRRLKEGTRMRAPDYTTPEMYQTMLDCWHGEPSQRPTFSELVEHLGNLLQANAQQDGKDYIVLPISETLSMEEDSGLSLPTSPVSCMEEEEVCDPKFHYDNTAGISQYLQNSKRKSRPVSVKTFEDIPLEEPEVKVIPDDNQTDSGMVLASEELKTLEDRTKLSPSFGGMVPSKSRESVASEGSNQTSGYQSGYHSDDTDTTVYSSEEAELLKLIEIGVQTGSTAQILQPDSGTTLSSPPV
T1 sequence (P00533 25-1210): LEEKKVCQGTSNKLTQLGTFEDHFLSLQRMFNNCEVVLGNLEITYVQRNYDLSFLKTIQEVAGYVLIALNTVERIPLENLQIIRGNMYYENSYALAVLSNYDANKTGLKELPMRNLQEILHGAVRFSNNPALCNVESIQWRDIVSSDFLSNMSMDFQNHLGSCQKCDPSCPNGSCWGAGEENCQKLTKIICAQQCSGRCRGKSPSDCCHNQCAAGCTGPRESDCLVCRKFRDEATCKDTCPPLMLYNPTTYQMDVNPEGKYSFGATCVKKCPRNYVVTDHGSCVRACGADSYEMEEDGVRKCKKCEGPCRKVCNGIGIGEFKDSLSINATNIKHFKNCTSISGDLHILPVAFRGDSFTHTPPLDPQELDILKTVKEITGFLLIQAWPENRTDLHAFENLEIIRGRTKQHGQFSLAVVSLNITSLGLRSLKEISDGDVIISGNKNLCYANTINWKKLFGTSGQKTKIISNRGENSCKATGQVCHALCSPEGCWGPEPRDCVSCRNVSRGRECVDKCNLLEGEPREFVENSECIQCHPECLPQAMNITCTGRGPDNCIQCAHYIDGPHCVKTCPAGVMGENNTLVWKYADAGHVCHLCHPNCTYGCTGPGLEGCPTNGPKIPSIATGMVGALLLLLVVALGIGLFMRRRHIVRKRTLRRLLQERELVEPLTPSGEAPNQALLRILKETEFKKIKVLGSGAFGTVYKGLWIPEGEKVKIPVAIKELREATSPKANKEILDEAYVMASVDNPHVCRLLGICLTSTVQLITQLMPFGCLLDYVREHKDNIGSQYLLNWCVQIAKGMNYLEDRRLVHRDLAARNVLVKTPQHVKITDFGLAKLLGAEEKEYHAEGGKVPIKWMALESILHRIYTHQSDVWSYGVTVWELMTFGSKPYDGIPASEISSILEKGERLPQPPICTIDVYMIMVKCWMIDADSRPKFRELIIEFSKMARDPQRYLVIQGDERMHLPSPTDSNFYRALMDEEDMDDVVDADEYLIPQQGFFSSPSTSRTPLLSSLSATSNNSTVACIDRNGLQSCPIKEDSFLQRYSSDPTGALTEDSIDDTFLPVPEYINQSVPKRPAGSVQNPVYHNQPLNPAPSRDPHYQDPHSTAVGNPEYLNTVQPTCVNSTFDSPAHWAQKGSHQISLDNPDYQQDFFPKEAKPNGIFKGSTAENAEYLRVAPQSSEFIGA

Q: Which melting point does the source give for NS(=O)(=O)c1ccc(Nc2ncnc3sc4c(c23)CCCCC4)cc1 [Compound 4a, 4-((6,7,8,9-Tetrahydro-5H-cyclohepta[4,5]thieno[2,3-d]pyrimidin-4-yl)amino)benzenesulfonamide] here?
A: 271 to 272 °C

Q: And the IC50 (MCF-7 cell line)?
A: 39800 ± 4110 nM

Q: For O=S(=O)(Nc1ncccn1)c1ccc(Nc2ncnc3sc4c(c23)CCCCC4)cc1 [Compound 4b, N-(Pyrimidin-2-yl)-4-((6,7,8,9-tetrahydro-5H-cyclohepta[4,5]thieno[2,3-d]pyrimidin-4-yl)amino)benzenesulfonamide], which melting point is on record?
A: 243 to 245 °C

Q: What about the IC50 (MCF-7 cell line) of the same molecule?
A: 7120 ± 550 nM

Q: Which results are given for Cc1ccnc(NS(=O)(=O)c2ccc(Nc3ncnc4sc5c(c34)CCCCC5)cc2)n1 [Compound 4c, N-(4-Methylpyrimidin-2-yl)-4-((6,7,8,9-tetrahydro-5H-cyclohepta[4,5]thieno[2,3-d]pyrimidin-4-yl)amino)benzenesulfonamide]?
A: melting point: 260 to 262 °C; IC50 (MCF-7 cell line): 11000 ± 1240 nM

Q: Which results are given for Nc1cccc(Oc2ncnc3sc4c(c23)CCCCC4)c1 [Compound 5a, 3-((6,7,8,9-Tetrahydro-5H-cyclohepta[4,5]thieno[2,3-d]pyrimidin-4-yl)oxy)aniline]?
A: IC50 (EGFR [1]): 70 ± 3 nM; melting point: 179 to 180 °C; IC50 (MCF-7 cell line): 1980 ± 210 nM; IC50 [2]: 1710 ± 62 nM

Q: Which IC50 (EGFR [1]) does the source give for Nc1ccc(Oc2ncnc3sc4c(c23)CCCCC4)cc1 [Compound 5b, 4-((6,7,8,9-Tetrahydro-5H-cyclohepta[4,5]thieno[2,3-d]pyrimidin-4-yl)oxy)aniline] here?
A: 42 ± 2 nM

Q: And the “folds more potent than lapatinib, EGFR inhibitory activity” value (EGFR [1])?
A: 1.24 folds

Q: What about the IC50 [3] of the same molecule?
A: 72700 ± 3980 nM

Q: What about the Selectivity index [3] of the same molecule?
A: 49.5

Q: What about the melting point of the same molecule?
A: > 300 °C

Q: What about the IC50 (MCF-7 cell line) of the same molecule?
A: 1470 ± 110 nM

Q: And the IC50 [2]?
A: 510 ± 16 nM

Q: For Brc1ccc(Oc2ncnc3sc4c(c23)CCCCC4)cc1 [Compound 5c, 4-(4-Bromophenoxy)-6,7,8,9-tetrahydro-5H-cyclohepta[4,5]thieno[2,3-d]pyrimidine], which melting point is on record?
A: 135 to 136 °C

Q: What about the IC50 (MCF-7 cell line) of the same molecule?
A: 6650 ± 410 nM

Q: Which IC50 (EGFR [1]) does the source give for Clc1ccccc1Oc1ncnc2sc3c(c12)CCCCC3 [Compound 5d, 4-(2-Chlorophenoxy)-6,7,8,9-tetrahydro-5H-cyclohepta[4,5]thieno[2,3-d]pyrimidine] here?
A: 70 ± 4 nM

Q: And the melting point?
A: > 300 °C

Q: What about the IC50 (MCF-7 cell line) of the same molecule?
A: 1340 ± 70 nM

Q: And the IC50 [2]?
A: 740 ± 25 nM

Q: With Clc1ccc(Oc2ncnc3sc4c(c23)CCCCC4)cc1 [Compound 5e, 4-(4-Chlorophenoxy)-6,7,8,9-tetrahydro-5H-cyclohepta[4,5]thieno[2,3-d]pyrimidine] as the molecule, how does the IC50 (EGFR [1]) read?
A: 69 ± 3 nM

Q: And the melting point?
A: 115 to 116 °C

Q: What about the IC50 (MCF-7 cell line) of the same molecule?
A: 2760 ± 330 nM

Q: And the IC50 [2]?
A: 340 ± 13 nM

Q: For Cc1cc(Oc2ncnc3sc4c(c23)CCCCC4)ccc1Cl [Compound 5f, 4-(4-Chloro-3-methylphenoxy)-6,7,8,9-tetrahydro-5H-cyclohepta[4,5]thieno[2,3-d]pyrimidine], which IC50 (EGFR [1]) is on record?
A: 28 ± 3 nM

Q: What about the “folds more potent than erlotinib, EGFR inhibitory activity” value (EGFR [1]) of the same molecule?
A: 1.18 folds

Q: What about the “%G0–G1” value (MCF-7 cells [4]; MCF-7, 0.66 µM) of the same molecule?
A: 34.19%

Q: And the “%G2/M” value (MCF-7 cells [4]; MCF-7, 0.66 µM)?
A: 32.65%

Q: And the “%Pre-G1” value (MCF-7 cells [4]; MCF-7, 0.66 µM)?
A: 17.58%

Q: And the “%S” value (MCF-7 cells [4]; MCF-7, 0.66 µM)?
A: 33.16%

Q: And the “increase in percentage of cells at G2/M phase compared to control” value (MCF-7 cells [4]; MCF-7, IC50 concentration)?
A: 4.75 folds

Q: And the “increase in percentage of cells at pre-G1 phase compared to control” value (MCF-7 cells [4]; MCF-7, IC50 concentration)?
A: 11.80 folds

Q: What about the “Apoptosis %Total” value (MCF-7 cells [5]) of the same molecule?
A: 17.58%

Q: What about the “increase in annexin-V positive cells (early apoptosis) more than control” value (MCF-7 cells [5]) of the same molecule?
A: 6.07 folds

Q: And the “increase in late apoptotic cells more than control” value (MCF-7 cells [5])?
A: about 24.66 folds

Q: And the “increase in necrotic cells more than control” value (MCF-7 cells [5])?
A: ~12.48 folds

Q: And the “Apoptosis %Early” value (MCF-7 cells [5]; lower right quadrant)?
A: 5.34%

Q: And the Necrosis (MCF-7 cells [5]; upper left quadrant)?
A: 2.87%

Q: What about the “Apoptosis %Late” value (MCF-7 cells [5]; upper right quadrant) of the same molecule?
A: 9.37%

Q: And the IC50 [3]?
A: 153000 ± 7570 nM

Q: What about the Selectivity index [3] of the same molecule?
A: 232.1

Q: And the IC50 (MCF-7 cell line)?
A: 660 ± 50 nM

Q: What about the “folds more potent than doxorubicin, anticancer activity” value (MCF-7 cell line; MCF-7) of the same molecule?
A: 4.64 folds

Q: What about the “folds more potent than erlotinib, anticancer activity” value (MCF-7 cell line; MCF-7) of the same molecule?
A: 1.73 folds

Q: And the IC50 [2]?
A: 1230 ± 28 nM

Q: Which IC50 (EGFR [1]) does the source give for Fc1ccc(Oc2ncnc3sc4c(c23)CCCCC4)cc1 [Compound 5g, 4-(4-Fluorophenoxy)-6,7,8,9-tetrahydro-5H-cyclohepta[4,5]thieno[2,3-d]pyrimidine] here?
A: 200 ± 11 nM

Q: And the melting point?
A: > 300 °C

Q: What about the IC50 (MCF-7 cell line) of the same molecule?
A: 1230 ± 40 nM

Q: For Cc1ccccc1Oc1ncnc2sc3c(c12)CCCCC3 [Compound 5h, 4-(o-Tolyloxy)-6,7,8,9-tetrahydro-5H-cyclohepta[4,5]thieno[2,3-d]pyrimidine], which melting point is on record?
A: > 300 °C

Q: What about the IC50 (MCF-7 cell line) of the same molecule?
A: 87400 ± 5400 nM

Q: With Cc1ccc(Oc2ncnc3sc4c(c23)CCCCC4)cc1 [Compound 5i, 4-(p-Tolyloxy)-6,7,8,9-tetrahydro-5H-cyclohepta[4,5]thieno[2,3-d]pyrimidine] as the molecule, how does the melting point read?
A: > 300 °C

Q: What about the IC50 (MCF-7 cell line) of the same molecule?
A: 21100 ± 2700 nM

Q: With COc1ccc(Oc2ncnc3sc4c(c23)CCCCC4)cc1 [Compound 5j, 4-(4-Methoxyphenoxy)-6,7,8,9-tetrahydro-5H-cyclohepta[4,5]thieno[2,3-d]pyrimidine] as the molecule, how does the melting point read?
A: > 300 °C

Q: What about the IC50 (MCF-7 cell line) of the same molecule?
A: 5010 ± 310 nM

Q: For O=[N+]([O-])c1ccc(Oc2ncnc3sc4c(c23)CCCCC4)cc1 [Compound 5k, 4-(4-Nitrophenoxy)-6,7,8,9-tetrahydro-5H-cyclohepta[4,5]thieno[2,3-d]pyrimidine], which IC50 (EGFR [1]) is on record?
A: 460 ± 18 nM

Q: What about the melting point of the same molecule?
A: 166 to 169 °C

Q: And the IC50 (MCF-7 cell line)?
A: 2760 ± 190 nM

Q: Which results are given for COc1cccc2c1C(=O)c1c(O)c3c(c(O)c1C2=O)C[C@@](O)(C(=O)CO)C[C@@H]3O[C@H]1C[C@H](N)[C@H](O)[C@H](C)O1 [Doxorubicin, reference compound]?
A: IC50 [3]: 27600 ± 1550 nM; IC50 (MCF-7 cell line): 3060 ± 190 nM

Q: For C#Cc1cccc(Nc2ncnc3cc(OCCOC)c(OCCOC)cc23)c1 [Erlotinib, reference compound], which IC50 [3] is on record?
A: 69400 ± 4240 nM

Q: And the IC50 (MCF-7 cell line)?
A: 1140 ± 50 nM

Q: For CCOC(=O)Nc1ccc(Nc2ncnc3cc(OC)c(OC)cc23)cc1Cl [III], which IC50 (EGFR [6]) is on record?
A: 900 nM

Q: With COC(=O)Nc1ccc(Nc2ncnc3cc(OC)c(OC)cc23)cc1 [II] as the molecule, how does the IC50 (VEGFR-2) read?
A: 5800 nM

Q: Which IC50 (VEGFR-2) does the source give for COc1cc2nc(Cl)nc(Nc3ccc(S(=O)(=O)Nc4nccs4)cc3)c2cc1OC [IV] here?
A: 7790 nM

Q: With COc1cc2ncnc(Nc3ccc(Br)cc3F)c2cc1OC [I] as the molecule, how does the IC50 (VEGFR-2) read?
A: 1650 nM

Q: Which IC50 (VEGFR-2) does the source give for O=C(Nc1cccc(Br)c1)Nc1ccc(Oc2ncnc3sc4c(c23)CCCC4)cc1Cl [VII] here?
A: 15 nM

Q: For COc1cc2nc(Cl)nc(Nc3ccc(C(N)=O)cc3)c2cc1OC [VI], which IC50 (VEGFR-2) is on record?
A: 1170 nM

Q: For COc1cc2nc(Cl)nc(Nc3ccc(S(N)(=O)=O)cc3)c2cc1OC [V], which IC50 (VEGFR-2) is on record?
A: 1020 nM
